In data set [1] the test system is HIV-1 (IIIB), HIV-1 (NL4.3). Nature of the data set: microbe, parasite or virus in culture. In kind it is cell-based. The settings on record: for EC50: Human immunodeficiency virus 1, IIIB, MT4, MT-4 cells, 50% protection against HIV-induced cytopathogenic effect, MTT; for SI: selectivity index, ratio of CC50 to EC50. The protocol:
(§1) A rapid and automated assay procedure was used for the in vitro evaluation of anti-HIV agents. An HTLV-1 transformed T4-cell line MT-4, which was previously shown to be highly susceptible to and permissive for HIV infection, served as the target cell line. Inhibition of the HIV-induced cytopathogenic effect was used as the end point. The viabitlity of both HIV- and mock-infected cells was assessed spectrophotometrically via in situ reduction of 3-(4,5-dimethylthiazol-2-yl)-2,5-diphenyltetrazolium bromide (MTT). The 50% cytotoxic concentration (CC50 in μM or μg/ml) was defined as the concentration of compound that reduced the absorbance of the mock-infected control sample by 50%. The percent protection achieved by the compound in HIV-infected cells was calculated by the following formula:
(§2) [formula] whereby (ODT)HIV is the optical density measured with a given concentration of the test compound in HIV-infected cells; (ODC)HIV is the optical density measured for the control untreated HIV-infected cells; (ODC)MOCK is the optical density measured for the control untreated mock-infected cells; all optical density values were determined at 540 nm. The dose achieving 50% protection according to the above formula was defined as the 50% inhibitory concentration (EC50 in μM or μg/ml). The ratio of CC50 to EC50 was defined as the selectivity index (SI). […] Examples of inhibition of cell proliferation by particular compounds of the invention can be found by looking at the respective CC50 values in the MT-4 cell line. Cells:
(§3) MT-4 cells (Miyoshi et al., 1982) were grown and maintained in RPMI 1640 medium supplemented with 10% heat-inactivated fetal calf serum, 2 mM I-glutamine, 0.1% sodium bicarbonate, and 20 μg of gentamicin per ml. Alternatively, the MT-4 cells may also be grown in RPMI 1640 medium supplemented with 10% FCS and 20 μg/ml of gentamicin (RPMI-complete).
The HIV-1 (IIIB) strain (Popovic et al., 1984) as well as the HIV-1 (NL4.3) strain (Adachi et al., J. Virol. 59, 284-291 (1986)) were used.

Data set [2] has as its target LEDGF/p75-HIV-1 integrase interaction (Human immunodeficiency virus type 1 group M subtype B (isolate HXB2) (HIV-1), UniProt P04585). Nature of the data set: AlphaScreen assay of LEDGF-integrase interaction inhibition. The format is binding. The protocol: Alphascreen Assay to Measure the LEDGF-Integrase Interaction Inhibitory Activity of Compounds of the Invention
The AlphaScreen assay was performed according to the manufacturer's protocol (Perkin Elmer, Benelux). Reactions were performed in 25 μl final volume in 384-well Optiwell™ microtiter plates (Perkin Elmer). The reaction buffer contained 25 mM Tris-HCl (pH 7.4), 150 mM NaCl, 1 mM MgCl2, 0.01% (v/v) Tween-20 and 0.1% (w/v) bovine serum albumin. His6-tagged integrase (300 nM final concentration) was incubated with the compounds for 30 min at 4° C. The compounds were added at varying concentrations spanning a wide range from 0.1 up to 100 μM. Afterwards 100 nM flag-LEDGF/p75 was added and incubation was prolonged for an additional hour at 4° C. Subsequently 5 μl of Ni-chelate-coated acceptor beads and 5 μl anti-flag donor beads were added to a final concentration of 20 μg/ml of both beads. Proteins and beads were incubated for 1 h at 30° C. in order to allow association to occur. Exposure of the reaction to direct light was omitted as much as possible and the emission of light from the acceptor beads was measured in the EnVision plate reader (Perkin Elmer, Benelux) and analyzed using the EnVision manager software. IN/DNA binding was analyzed in a similar setting using His6-tagged integrase (1 μM final concentration) and an oligodeoxynucleotide mimicking the IN ELISA oligonucleotide substrate (30 nM final concentration). Counterscreens with JPO2 or PogZ, respectively, were essentially performed as described previously.
His6-tagged HIV-1 integrase, 3xflag-tagged LEDGF/p75, MBP-JPO2 and MBP-PogZ were purified for AlphaScreen applications as described previously 23,25,56.

The nature of data set [3]: Cytotoxicity in mock-infected MT-4 cells (MTT). In kind it is cell-based. To be noted: human, 50% cytotoxic concentration. The procedure:
as §1, §2, §3

Where [4] appears, read: His6-tagged integrase 300 nM, flag-LEDGF/p75 100 nM, read-out: Alphascreen IC50.

We go through 19 molecules from US8785638B2, “Thieno [2, 3-B] pyridine derivatives as viral replication inhibitors” (Katholieke Universiteit Leuven, priority 2009, dated 2014).

Where two headings read alike, the source gives them in different places.

Turning to `CCCC(C(=O)O)c1c(CC)nc2sc3c(c2c1-c1ccc(C)cc1)CCCC3` (centres unmarked) [Cpd 181, 2-[2-ethyl-4-(p-tolyl)-5,6,7,8-tetrahydro[1]benzothieno[2,3-b]pyridin-3-yl]pentanoic acid], in data set [1], the EC50 was determined as 2.89 µM and the SI is 28. Moreover, the IC50 in data set [2] (setting [4]) was 8.06 µM. This molecule gave a CC50 in data set [3] of 81 µM.

`CCCC(C(=O)O)c1c(C)nc2sc3c(c2c1-c1ccc(Cl)c(Cl)c1)CCCC3` (centres unmarked) [Cpd 139, 2-[2-Methyl-4-(3,4-dichlorophenyl)-5,6,7,8-tetrahydro[1]benzothieno[2,3-b]pyridin-3-yl]pentanoic acid]: in data set [1], a half-maximal response (EC50) required 5.32 µM and the SI worked out at 10. In addition, the IC50 in data set [2] (setting [4]) stood at 9.24 µM. The molecule also returned a CC50 in data set [3] of 55.1 µM.

Consider `CCCC(C(=O)O)c1c(C)nc2sc3c(c2c1-c1cccc(C(F)(F)F)c1)CCCC3` (centres unmarked) [Cpd 140, 2-[2-Methyl-4-(3-trifluoromethylphenyl)-5,6,7,8-tetrahydro[1]benzothieno[2,3-b]pyridin-3-yl]pentanoic acid], for which, in data set [1], the EC50 turned out to be 28.2 µM and the SI was 4. The IC50 in data set [2] (setting [4]) is 18.1 µM. In addition, half-maximal cytotoxicity in data set [3] (CC50) was put at 100 µM.

In turn, `CCCC(C(=O)O)c1c(C)nc2scc(-c3ccccc3)c2c1-c1ccc(C)cc1` (centres unmarked) [Cpd 143] had an EC50 in data set [1] above 66 µM. The IC50 in data set [2] (setting [4]) amounted to 49.2 µM. In data set [3], this molecule displayed a CC50 of 66 µM.

For `CCCC(C(=O)O)c1c(C)nc2sc3c(c2c1-c1ccccc1F)CCCC3` (centres unmarked) [Cpd 153, 2-[2-Methyl-4-(2-fluorophenyl)-5,6,7,8-tetrahydro[1]benzothieno[2,3-b]pyridin-3-yl]pentanoic acid], in data set [1], the EC50 came to 17 µM and the SI was above 8. Moreover, the IC50 in data set [2] (setting [4]) came out at 43.6 µM. Moreover, the CC50 in data set [3] was above 125 µM.

As to `Cc1nc2sc3c(c2c(-c2cnn(C)c2)c1C(OC(C)(C)C)C(=O)O)CCCC3` (centres unmarked) [Cpd 177, 2-[2-methyl-4-(1-methyl-1H-pyrazol-4-yl)-5,6,7,8-tetrahydro[1]benzothieno[2,3-b]pyridin-3-yl]-2-tert-butoxyacetic acid], in data set [1], the response was half-maximal at 1.17 µM (EC50) and the SI is on record as above 181. The IC50 in data set [2] (setting [4]) is 11.7 µM. The CC50 in data set [3] was above 212 µM.

For `Cc1ccc(-c2c(C(CCC(F)(F)F)C(=O)O)c(C)nc3sc4c(c23)CCCC4)cc1` (centres unmarked) [Cpd 158, 2-[2-Methyl-4-(p-tolyl)-5,6,7,8-tetrahydro[1]benzothieno[2,3-b]pyridin-3-yl]-5,5,5-trifluoropentanoic acid], in data set [1], a half-maximal effect (EC50) was put at 5.48 µM and the SI was 11. Besides, the IC50 in data set [2] (setting [4]) was 13.5 µM. This molecule registered a CC50 in data set [3] of 58.5 µM.

As to `CCC[C@H](C(=O)O)c1c(C)nc2sc3c(c2c1-c1ccc(C)cc1)CCCC3` [Cpd 114, (2S)-[2-Methyl-4-p-tolyl-5,6,7,8-tetrahydro[1]benzothieno[2,3-b]pyridin-3-yl]pentanoic acid], in data set [1], the EC50 stood at 0.58 µM and the SI is 217. Moreover, the half-inhibitory concentration (IC50) in data set [2] (setting [4]) is below 1 µM. This molecule returned a CC50 in data set [3] of 126 µM.

On to `CCCC(C(=O)O)c1c(C)nc2sc3c(c2c1-c1ccc(C)cc1)CCN(Cc1ccccc1)C3` (centres unmarked) [Cpd 163, 2-[7-Benzyl-2-methyl-4-(p-tolyl)-5,6,7,8-tetrahydro-9-thia-1,7-diaza-fluoren-3-yl]pentanoic acid], for which the EC50 in data set [1] was above 23 µM. Further, the IC50 in data set [2] (setting [4]) was 4.5 µM. Also, it took 23 µM to reach half-maximal cytotoxicity in data set [3] (CC50).

`CCC[C@@H](C(=O)O)c1c(C)nc2sc3c(c2c1-c1ccc(C)cc1)CCCC3` [Cpd 115, (2R)-[2-Methyl-4-p-tolyl-5,6,7,8-tetrahydro[1]benzothieno[2,3-b]pyridin-3-yl]pentanoic acid]: in data set [1], the EC50 amounted to 5.03 µM and the SI came to 26. The IC50 in data set [2] (setting [4]) stood at 17.6 µM. Besides, the CC50 in data set [3] worked out at 131 µM.

On to `C#CCC(C(=O)O)c1c(C)nc2sc3c(c2c1-c1ccc(C)cc1)CCCC3` (centres unmarked) [Cpd 159, 2-[2-Methyl-4-(p-tolyl)-5,6,7,8-tetrahydro[1]benzothieno[2,3-b]pyridin-3-yl]-pent-4-yn-oic acid], for which, in data set [1], the EC50 was determined as 7.54 µM and the SI is on record as 13. The IC50 in data set [2] (setting [4]) was found to be 13.3 µM. This molecule showed a CC50 in data set [3] of 99.5 µM.

As to `CCCC(C(=O)O)c1c(C)nc2sc3c(c2c1-c1ccc(OC)c(OC)c1)CCCC3` (centres unmarked) [Cpd 145, 2-[2-Methyl-4-(3,4-dimethoxyphenyl)-5,6,7,8-tetrahydro[1]benzothieno[2,3-b]pyridin-3-yl]pentanoic acid], in data set [1], the EC50 amounted to 123 µM and the SI is reported as above 1. The IC50 in data set [2] (setting [4]) was found to be 29.6 µM. In addition, the CC50 in data set [3] is above 125 µM.

Consider `CCCC(C(=O)O)c1c(C)nc2sc3c(c2c1-c1cccc(C)c1)CCCC3` (centres unmarked) [Cpd 141, 2-[2-Methyl-4-(m-tolyl)-5,6,7,8-tetrahydro[1]benzothieno[2,3-b]pyridin-3-yl]pentanoic acid], for which, in data set [1], the EC50 was determined as 14.8 µM and the SI worked out at 4. In addition, the IC50 in data set [2] (setting [4]) was determined as 23.7 µM. Further, the CC50 in data set [3] is 55.5 µM.

On to `CCCC(C(=O)O)c1c(C)nc2sc3c(c2c1-c1ccc(C)cc1)CCCCC3` (centres unmarked) [Cpd 135], for which, in data set [1], a half-maximal effect (EC50) was put at 42.4 µM and the SI stood at 3. In data set [2], the concentration for half-maximal inhibition (IC50) came out at 55.8 µM. This molecule also came in with a CC50 in data set [3] of 109 µM.

As to `CCCC(C(=O)O)c1c(C)nc2sc3c(c2c1-c1cccc(OC)c1)CCCC3` (centres unmarked) [Cpd 144, 2-[2-Methyl-4-(m-anisyl)-5,6,7,8-tetrahydro[1]benzothieno[2,3-b]pyridin-3-yl]pentanoic acid], in data set [1], the EC50 turned out to be 20 µM and the SI is 3. In data set [2], this molecule registered an IC50 of 6.64 µM. Half-maximal cytotoxicity in data set [3] (CC50) was put at 63 µM.

As for `Cc1nc2sc3c(c2c(-c2ccc4ncsc4c2)c1C(OC(C)(C)C)C(=O)O)CCCC3` (centres unmarked) [Cpd 186, 2-[2-methyl-4-(benzo[d]thiazol-6-yl)-5,6,7,8-tetrahydro[1]benzothieno[2,3-b]pyridin-3-yl]-2-tert-butoxyacetic acid], in data set [1], the EC50 worked out at 0.038 µM and the SI is 2900. Besides, the IC50 in data set [2] (setting [4]) was determined as 0.43 µM. Further, the CC50 in data set [3] was 110 µM.

For `CCCC(C(=O)O)c1c(C)nc2sc(C)c(CC)c2c1-c1ccc(C)cc1` (centres unmarked) [Cpd 109, 2-(3-Ethyl-2,6-dimethyl-4-p-tolylthieno[2,3-b]pyridin-5-yl)pentanoic acid], in data set [1], the response was half-maximal at 2.22 µM (EC50) and the SI was 26. For the same molecule, the IC50 in data set [2] (setting [4]) amounted to 6.81 µM. This molecule returned a CC50 in data set [3] of 57.9 µM.

On to `Cc1nc2sc3c(c2c(-c2cccnc2)c1C(OC(C)(C)C)C(=O)O)CCCC3` (centres unmarked) [Cpd 173, 2-[2-Methyl-4-(pyridin-3-yl)-5,6,7,8-tetrahydro[1]benzothieno[2,3-b]pyridin-3-yl]-2-tert-butoxyacetic acid], for which, in data set [1], a half-maximal effect (EC50) was put at 4.51 µM and the SI is given as 50. Besides, the IC50 in data set [2] (setting [4]) is 5.9 µM. The molecule further gave a CC50 in data set [3] of 225 µM.

Consider `CCCC(C(=O)O)c1c(C)nc2sc3c(c2c1-c1ccc(C)cc1)CCC3` (centres unmarked) [Cpd 100, 2-[2-Methyl-4-p-tolyl-6,7-dihydro-5H-cyclopenta[4,5]thieno[2,3-b]pyridin-3-yl]pentanoic acid], for which, in data set [1], the EC50 worked out at 1.69 µM and the SI turned out to be 72. Also, the IC50 in data set [2] (setting [4]) amounted to 6.61 µM. Further, the CC50 in data set [3] is 121 µM.
